Test results taken from patent US11304956B2, “Use of 7-bromo-5-(O-chlorophenyl)-3-propoxy-1,2-dihydro-3H-1,4-benzodiazepin-2-one for inhibition of neuropathic pain and seizures of different etiology” (priority 2016, dated 2022).

Test system: gastric mucosa
Assay: Ulcerogenic effect, acute experiment (single intragastric dose)
Assay type: in vivo, rats
Conditions: 3 hours; for Average score: 4-score scale; for Multiplicity of damage: number of ulcers per animal
Description: The disadvantage of most analgesics is the fact that they have ulcerogenic effect that interferes with their long-term use. We have studied this side effect of Compound 1 in acute and subchronic experiments. In the first scheme, the compound in the form of an aqueous suspension (Tween-80) was administered in single dose intragastrically to rats, which had previously been deprived of food for 16 hours with free access to water. After 3 hours, the animals were euthanized with a cervical dislocation, then, after dissection of the abdominal cavity, stomachs were ejected and washed in isotonic sodium chloride solution to take out the contents. Damage of stomach was determined visually. In the second scheme, the compound was administered intragastrically for 4 days, after that the extent of the damaging effect on the stomach was determined, as in the previous experiment.
Evaluation of ulcerogenic action was carried out on a 4-score scale:
0 score—no damage; 0.5 score—hyperemia (blood vessels overflow)
1 score—single minor lesions (1-3 point hemorrhages or small ulcers)
2 score—multiple (more than 3) lesions (erosions, pinpoint hemorrhages) or 1 large ulcer
3 score—significant and massive damages (erosions, hemorrhages) of the gastric mucosa with significant size (diameter up to 4 mm)
4 score—gross injuries (massive hemorrhages, erosions, perforations) that cover the entire surface of the gastric mucosa.
The average multiplicity index of damage to the gastric mucosa (the number of ulcers per animal) and the severity of the damage (in scores) were determined.
Compound 1 was administered over a wide dose range—in acute studies—50, 250, 500 and 1000 mg/kg. For the subchronic experiment, the compound was used at a dose of 50 mg/kg.

[1] = 50 mg/kg single intragastric dose
[2] = 250 mg/kg single intragastric dose
[3] = 500 mg/kg single intragastric dose
[4] = 1000 mg/kg single intragastric dose

With `CCCOC1N=C(c2ccccc2Cl)c2cc(Br)ccc2NC1=O` (stereo not drawn) [Compound 1, 7-bromo-5-(o-chlorophenyl)-3-propoxy-1,2-dihydro-3H-1,4-benzodiazepin-2-one] the “Number of animals with lesions of the gastric mucosa, score 1” value (from here on “Number of animals with lesions … score 1”) [1] was 3, the “Number of animals with lesions of the gastric mucosa, score 2” value (“Number of animals with lesions … score 2” for short) [1] was 0 and the “Number of animals with lesions of the gastric mucosa, score 3” value (“Number of animals with lesions … score 3” for short) [1] was 0. For the same compound, the “Number of animals with lesions of the gastric mucosa, score 4” value (“Number of animals with lesions … score 4” for short) [1] was 0, the Average score [1] was 0.2 ± 0.13 and the Multiplicity of damage [1] was 0.5 ± 0.34. For the same compound, the “Number of animals with lesions … score 1” value [2] was 5, the “Number of animals with lesions … score 2” value [2] was 2 and the “Number of animals with lesions … score 3” value [2] was 0. For the same compound, the “Number of animals with lesions … score 4” value [2] was 0, the Average score [2] was 0.8 ± 0.25 and the Multiplicity of damage [2] was 0.9 ± 0.31. The “Number of animals with lesions … score 1” value [3] was 7, the “Number of animals with lesions … score 2” value [3] was 3 and the “Number of animals with lesions … score 3” value [3] was 0. For the same compound, the “Number of animals with lesions … score 4” value [3] was 0, the Average score [3] was 1.0 ± 0.21 and the Multiplicity of damage [3] was 1.2 ± 0.25. The “Number of animals with lesions … score 1” value [4] was 8, the “Number of animals with lesions … score 2” value [4] was 3 and the “Number of animals with lesions … score 3” value [4] was 0. The “Number of animals with lesions … score 4” value [4] was 0, the Average score [4] was 1.3±0.21 and the Multiplicity of damage [4] was 2.0 ± 0.37.
